{"source": "ChEMBL document CHEMBL4354864", "about": "“Bicyclic α-Iminophosphonates as High Affinity Imidazoline I2 Receptor Ligands for Alzheimer's Disease” (J Med Chem, 2020)", "key": {"Nischarin": {"target": "Nischarin (Homo sapiens, UniProt Q9Y2I1)", "sequence (Q9Y2I1 whole entry)": "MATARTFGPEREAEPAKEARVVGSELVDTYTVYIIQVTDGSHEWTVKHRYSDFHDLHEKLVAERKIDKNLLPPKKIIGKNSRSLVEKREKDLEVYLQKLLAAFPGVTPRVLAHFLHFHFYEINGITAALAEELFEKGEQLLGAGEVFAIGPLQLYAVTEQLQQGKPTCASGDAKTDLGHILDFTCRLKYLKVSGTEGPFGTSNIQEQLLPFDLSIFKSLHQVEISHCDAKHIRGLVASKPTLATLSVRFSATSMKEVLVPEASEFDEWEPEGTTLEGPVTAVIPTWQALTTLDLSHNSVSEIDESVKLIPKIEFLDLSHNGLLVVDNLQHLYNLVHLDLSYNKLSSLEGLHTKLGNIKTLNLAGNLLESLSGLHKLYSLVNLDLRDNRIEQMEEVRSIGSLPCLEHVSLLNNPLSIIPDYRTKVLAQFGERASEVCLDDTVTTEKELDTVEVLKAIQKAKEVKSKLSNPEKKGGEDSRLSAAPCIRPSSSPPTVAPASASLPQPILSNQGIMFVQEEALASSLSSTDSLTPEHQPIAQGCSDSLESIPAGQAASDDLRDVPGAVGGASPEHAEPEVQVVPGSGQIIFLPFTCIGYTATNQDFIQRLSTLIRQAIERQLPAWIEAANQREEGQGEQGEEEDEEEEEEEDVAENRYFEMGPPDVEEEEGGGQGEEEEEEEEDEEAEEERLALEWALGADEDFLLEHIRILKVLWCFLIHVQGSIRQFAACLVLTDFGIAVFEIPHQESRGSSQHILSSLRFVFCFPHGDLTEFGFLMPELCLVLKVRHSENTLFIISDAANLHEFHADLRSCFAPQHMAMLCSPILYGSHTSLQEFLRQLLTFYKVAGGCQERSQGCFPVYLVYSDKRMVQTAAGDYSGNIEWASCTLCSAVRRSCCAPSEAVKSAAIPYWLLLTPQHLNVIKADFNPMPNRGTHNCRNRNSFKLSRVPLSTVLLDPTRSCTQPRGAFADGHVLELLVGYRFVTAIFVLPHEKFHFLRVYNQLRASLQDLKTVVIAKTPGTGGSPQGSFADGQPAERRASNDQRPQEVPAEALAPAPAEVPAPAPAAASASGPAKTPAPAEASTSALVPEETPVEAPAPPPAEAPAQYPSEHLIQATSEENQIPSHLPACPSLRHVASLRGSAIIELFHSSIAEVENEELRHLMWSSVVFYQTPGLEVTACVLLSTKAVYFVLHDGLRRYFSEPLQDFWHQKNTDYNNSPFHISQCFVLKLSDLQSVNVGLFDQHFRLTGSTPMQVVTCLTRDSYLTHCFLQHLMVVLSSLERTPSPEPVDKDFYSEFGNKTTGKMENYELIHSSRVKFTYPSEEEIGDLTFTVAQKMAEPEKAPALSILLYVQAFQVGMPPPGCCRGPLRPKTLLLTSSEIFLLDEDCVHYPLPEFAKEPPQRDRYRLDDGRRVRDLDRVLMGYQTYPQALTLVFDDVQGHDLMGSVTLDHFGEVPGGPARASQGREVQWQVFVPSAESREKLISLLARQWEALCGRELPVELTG", "assay": "Displacement of [3H]clonidine from I1IR in human brain frontal cortex in presence of adrenaline incubated for 45 mins by liquid scintillation spectrometry", "assay_type": "tissue-based"}, "[1]": {"assay": "Displacement of [3H]2-BFI from I2IR in Sprague-Dawley rat brain cortex incubated for 45 mins by liquid scintillation spectrometry"}, "[2]": {"assay": "Displacement of [3H]2-BFI from I2IR in Swiss mouse brain cortex incubated for 45 mins by liquid scintillation spectrometry"}, "[3]": {"assay": "Effective permeability of compound by PAMPA-BBB assay", "assay_type": "ADME", "details": "read-out: Peff"}, "HeLa": {"tested_on": "HeLa", "assay": "Cytotoxicity against human HeLa cells assessed as effect on cell morphology at 100 uM incubated for 3 to 5 days by microscopic analysis", "assay_type": "cell-based"}, "Vero [4]": {"tested_on": "Vero", "assay": "Cytotoxicity against monkey Vero cells assessed as effect on cell morphology at 100 uM incubated for 3 to 5 days by microscopic analysis", "assay_type": "cell-based", "details": "chlorocebus sabaeus"}, "MDCK [5]": {"tested_on": "MDCK", "assay": "Cytotoxicity against dog MDCK cells assessed as effect on cell morphology at 100 uM incubated for 3 to 5 days by microscopic analysis", "assay_type": "cell-based, Canis lupus familiaris"}, "MT4 [6]": {"tested_on": "MT4", "assay": "Cytotoxicity against human MT4 cells assessed as effect on cell morphology at 100 uM incubated for 3 to 5 days by microscopic analysis", "assay_type": "cell-based", "details": "mt4, 100 µM"}, "Vero [7]": {"tested_on": "Vero", "assay": "Cytotoxicity against monkey Vero cells assessed as reduction in cell viability at 100 uM incubated for 3 to 5 days by colorimetric analysis", "assay_type": "cell-based", "details": "chlorocebus sabaeus"}, "MDCK [8]": {"tested_on": "MDCK", "assay": "Cytotoxicity against dog MDCK cells assessed as reduction in cell viability at 100 uM incubated for 3 to 5 days by colorimetric analysis", "assay_type": "cell-based, Canis lupus familiaris"}, "MT4 [9]": {"tested_on": "MT4", "assay": "Cytotoxicity against human MT4 cells assessed as reduction in cell viability at 100 uM incubated for 3 to 5 days by colorimetric analysis", "assay_type": "cell-based", "details": "mt4, 100 µM"}, "[10]": {"assay": "Cytotoxicity against human MRC5 cells assessed as reduction in cell viability incubated for 3 to 5 days by colorimetric analysis", "assay_type": "cell-based"}, "[11]": {"assay": "Solubility of compound in methanol incubated for 2 hrs by nephelometry", "assay_type": "physicochemical"}, "[12]": {"assay": "Solubility of compound in acetonitrile incubated for 2 hrs by nephelometry", "assay_type": "physicochemical"}, "[13]": {"assay": "Solubility of compound in water incubated for 2 hrs by nephelometry", "assay_type": "physicochemical", "details": "buffer"}, "[14]": {"assay": "Chemical stability of compound by HPLC analysis", "assay_type": "physicochemical"}, "[15]": {"assay": "Stability in mouse liver microsomes at 5 uM incubated for 60 mins by UPLC-MS/MS analysis", "assay_type": "ADME, Microsome", "details": "1 h"}, "Cytochrome P450 1A2": {"target": "T1, Cytochrome P450 1A2 (Homo sapiens, UniProt P05177)", "T1 sequence (P05177 whole entry)": "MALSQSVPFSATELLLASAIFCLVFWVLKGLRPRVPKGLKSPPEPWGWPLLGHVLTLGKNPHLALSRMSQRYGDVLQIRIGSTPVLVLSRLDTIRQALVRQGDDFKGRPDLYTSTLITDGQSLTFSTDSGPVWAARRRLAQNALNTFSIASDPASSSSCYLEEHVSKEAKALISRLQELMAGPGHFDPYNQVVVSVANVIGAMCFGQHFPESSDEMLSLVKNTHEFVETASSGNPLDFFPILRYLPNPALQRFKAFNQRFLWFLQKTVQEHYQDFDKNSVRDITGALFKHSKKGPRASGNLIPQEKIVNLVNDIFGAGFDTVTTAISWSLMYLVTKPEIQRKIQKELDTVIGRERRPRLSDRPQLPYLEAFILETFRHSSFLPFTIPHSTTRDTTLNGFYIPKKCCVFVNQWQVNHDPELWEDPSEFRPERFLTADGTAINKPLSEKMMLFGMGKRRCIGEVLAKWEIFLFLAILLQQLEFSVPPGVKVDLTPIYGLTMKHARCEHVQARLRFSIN", "assay": "Inhibition of recombinant human CYP1A2 at 10 uM using 3-cyano-7-ethoxycoumarin as substrate incubated for 5 mins followed by substrate addition by fluorescence based assay", "assay_type": "ADME", "details": "recombinant enzyme"}, "Cytochrome P450 2C19": {"target": "Cytochrome P450 2C19 (Homo sapiens, UniProt P33261)", "sequence (P33261 whole entry)": "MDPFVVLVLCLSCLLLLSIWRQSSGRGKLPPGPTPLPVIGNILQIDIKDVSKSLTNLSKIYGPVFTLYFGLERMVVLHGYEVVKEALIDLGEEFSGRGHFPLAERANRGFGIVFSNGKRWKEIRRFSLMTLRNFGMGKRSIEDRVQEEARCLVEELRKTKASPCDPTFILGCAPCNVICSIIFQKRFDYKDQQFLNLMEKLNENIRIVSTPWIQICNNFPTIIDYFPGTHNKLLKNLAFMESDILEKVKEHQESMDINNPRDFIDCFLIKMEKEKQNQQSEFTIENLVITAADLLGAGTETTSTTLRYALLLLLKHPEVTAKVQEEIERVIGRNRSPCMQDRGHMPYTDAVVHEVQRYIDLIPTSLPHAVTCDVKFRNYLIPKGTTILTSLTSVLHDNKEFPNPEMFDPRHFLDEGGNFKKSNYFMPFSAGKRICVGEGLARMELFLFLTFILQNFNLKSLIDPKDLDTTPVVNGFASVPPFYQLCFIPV", "assay": "Inhibition of recombinant human CYP2C19 at 10 uM using 3-cyano-7-ethoxycoumarin as substrate incubated for 5 mins followed by substrate addition by fluorescence based assay", "assay_type": "ADME", "details": "recombinant enzyme"}, "Cytochrome P450 3A4": {"target": "Cytochrome P450 3A4 (Homo sapiens, UniProt P08684)", "sequence (P08684 whole entry)": "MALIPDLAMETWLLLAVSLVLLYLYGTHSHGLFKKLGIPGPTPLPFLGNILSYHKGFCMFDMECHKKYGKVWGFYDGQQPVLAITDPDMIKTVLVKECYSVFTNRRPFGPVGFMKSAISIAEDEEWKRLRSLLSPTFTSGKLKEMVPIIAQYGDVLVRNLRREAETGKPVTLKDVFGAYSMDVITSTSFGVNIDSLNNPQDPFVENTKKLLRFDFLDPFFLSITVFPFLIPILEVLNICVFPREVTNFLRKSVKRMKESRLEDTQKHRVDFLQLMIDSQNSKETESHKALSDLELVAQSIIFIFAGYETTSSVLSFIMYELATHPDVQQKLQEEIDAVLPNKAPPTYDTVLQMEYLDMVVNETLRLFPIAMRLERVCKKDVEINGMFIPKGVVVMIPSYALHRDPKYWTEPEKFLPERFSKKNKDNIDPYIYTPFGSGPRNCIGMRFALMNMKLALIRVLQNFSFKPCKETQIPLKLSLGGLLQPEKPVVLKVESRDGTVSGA", "assay": "Inhibition of recombinant human CYP3A4 at 10 uM using 7-benzyloxytrifluoromethyl coumarin (7-BFC) and Dibenzylfluorescein as substrate incubated for 5 mins followed by substrate addition by fluorescence based assay", "assay_type": "ADME", "details": "recombinant enzyme"}, "Cytochrome P450 2D6": {"target": "Cytochrome P450 2D6 (Homo sapiens, UniProt P10635)", "sequence (P10635 whole entry)": "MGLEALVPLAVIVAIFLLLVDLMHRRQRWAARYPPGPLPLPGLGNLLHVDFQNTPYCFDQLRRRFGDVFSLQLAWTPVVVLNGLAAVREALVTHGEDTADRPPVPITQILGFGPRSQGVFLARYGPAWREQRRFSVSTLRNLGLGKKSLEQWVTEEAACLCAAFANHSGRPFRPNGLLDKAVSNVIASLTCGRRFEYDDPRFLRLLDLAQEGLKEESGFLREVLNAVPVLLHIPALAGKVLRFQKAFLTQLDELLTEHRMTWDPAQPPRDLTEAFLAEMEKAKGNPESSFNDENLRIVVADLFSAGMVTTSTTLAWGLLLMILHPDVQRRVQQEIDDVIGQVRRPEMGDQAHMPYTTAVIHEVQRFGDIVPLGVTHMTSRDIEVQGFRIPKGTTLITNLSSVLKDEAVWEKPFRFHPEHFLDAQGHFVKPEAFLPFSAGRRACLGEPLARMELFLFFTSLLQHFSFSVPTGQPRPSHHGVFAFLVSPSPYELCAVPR", "assay": "Inhibition of recombinant human CYP2D6 at 10 uM using AMMC as substrate incubated for 5 mins followed by substrate addition by fluorescence based assay", "assay_type": "ADME", "details": "recombinant enzyme"}, "[16]": {"target": "T2, Gastrin/cholecystokinin type B receptor (Homo sapiens, UniProt P32239)", "T2 sequence (P32239 whole entry)": "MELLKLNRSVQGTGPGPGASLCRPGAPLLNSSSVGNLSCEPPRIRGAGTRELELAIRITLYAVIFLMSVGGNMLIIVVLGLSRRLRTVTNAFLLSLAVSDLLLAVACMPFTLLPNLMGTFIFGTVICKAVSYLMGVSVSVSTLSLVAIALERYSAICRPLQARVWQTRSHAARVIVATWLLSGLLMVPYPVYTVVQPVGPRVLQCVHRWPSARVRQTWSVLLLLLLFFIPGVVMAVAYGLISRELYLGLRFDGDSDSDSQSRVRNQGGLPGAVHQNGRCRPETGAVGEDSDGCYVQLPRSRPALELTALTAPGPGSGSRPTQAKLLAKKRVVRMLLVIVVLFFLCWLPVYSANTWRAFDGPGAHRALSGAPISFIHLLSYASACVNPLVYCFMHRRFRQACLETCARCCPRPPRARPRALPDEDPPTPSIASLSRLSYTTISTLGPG", "assay": "Displacement of [125I]CCK-8s from human CCKB incubated for 60 mins by scintillation counting method"}, "Mus musculus [17]": {"tested_on": "Mus musculus", "assay": "Induction of hypothermia in CD-1 mouse assessed as reduction in body temperature at 20 mg/kg, ip administered for 5 days by thermometric method", "assay_type": "functional, organism-based"}, "Mus musculus [18]": {"tested_on": "Mus musculus", "assay": "Effect on FADD in CD-1 mouse at 20 mg/kg, ip administered for 5 days and measured after 1 hr of last dosage by Westernblot analysis", "assay_type": "functional, organism-based"}, "Mus musculus [19]": {"tested_on": "Mus musculus", "assay": "Cognitive enhancing effect in mouse model of 5xFAD assessed as increase in recognition memory at 5 mg/kg, po administered for 28 days and measured after 2 hrs of last dosage by novel object recognition test", "assay_type": "functional, organism-based"}, "Mus musculus [20]": {"tested_on": "Mus musculus", "assay": "Antineuroinflammatory activity in mouse model of 5xFAD assessed as effect on iNOS expression at 5 mg/kg, po administered for 4 weeks by qRT-PCR analysis", "assay_type": "functional, organism-based"}, "Mus musculus [21]": {"tested_on": "Mus musculus", "assay": "Antineuroinflammatory activity in mouse model of 5xFAD assessed as effect on Hmox1 expression at 5 mg/kg, po administered for 4 weeks by qRT-PCR analysis", "assay_type": "functional, organism-based"}, "Mus musculus [22]": {"tested_on": "Mus musculus", "assay": "Antineuroinflammatory activity in mouse model of 5xFAD assessed as reduction in H2O2 level at 5 mg/kg, po administered for 4 weeks", "assay_type": "functional, organism-based"}, "[23]": {"assay": "Solubility of compound in 1% DMSO incubated for 2 hrs by nephelometry", "assay_type": "physicochemical"}}, "note": "Calls of active or inactive are those of the source. No cut-off for these calls is given here.", "data": [{"compound": "CCOP(=O)(OCC)C1(c2ccccc2)N=CC2C(=O)N(c3ccc(F)c(Cl)c3)C(=O)C21", "note": "(racemic)", "values": [{"measurement": "IC50", "setting": "Nischarin", "value": 912, "unit": "µM"}, {"measurement": "Ki", "setting": "Nischarin", "value": 912, "unit": "µM"}, {"measurement": "pKi", "setting": "[1]", "value": 6.92}, {"measurement": "pKi", "setting": "[2]", "value": 6.41}, {"measurement": "Papp", "setting": "[3]", "value": 9.7, "unit": "×10⁻⁶ cm/s"}, {"measurement": "Activity", "setting": "HeLa", "value": "Non-Toxic"}, {"measurement": "Activity", "setting": "Vero [4]", "value": "Non-Toxic"}, {"measurement": "Activity", "setting": "MDCK [5]", "value": "Non-Toxic"}, {"measurement": "Activity", "setting": "MT4 [6]", "value": "Non-Toxic"}, {"measurement": "Activity", "setting": "Vero [7]", "value": "Non-Toxic"}, {"measurement": "Activity", "setting": "MDCK [8]", "value": "Non-Toxic"}, {"measurement": "Activity", "setting": "MT4 [9]", "value": "Non-Toxic"}, {"measurement": "CC50", "setting": "[10]", "value": "> 100", "unit": "µM"}, {"measurement": "solubility", "setting": "[11]", "value": "Soluble"}, {"measurement": "solubility", "setting": "[12]", "value": "Soluble"}, {"measurement": "solubility", "setting": "[13]", "value": "Soluble"}, {"measurement": "Stability", "setting": "[14]", "value": 100, "unit": "%"}, {"measurement": "Stability", "setting": "[15]", "value": "Stable"}, {"measurement": "inhibition (INH)", "setting": "Cytochrome P450 1A2", "value": "Not Active"}, {"measurement": "inhibition (INH)", "setting": "Cytochrome P450 2C19", "value": "Not Active"}, {"measurement": "inhibition (INH)", "setting": "Cytochrome P450 3A4", "value": "Not Active"}, {"measurement": "inhibition (INH)", "setting": "Cytochrome P450 2D6", "value": "Not Active"}, {"measurement": "IC50", "setting": "[16]", "value": "> 10", "unit": "µM"}, {"measurement": "T", "setting": "Mus musculus [17]", "value": "inactive"}, {"measurement": "Activity", "setting": "Mus musculus [18]", "value": "inactive"}, {"measurement": "Activity", "setting": "Mus musculus [19]", "value": "Active"}, {"measurement": "Activity", "setting": "Mus musculus [20]", "value": "Active"}, {"measurement": "Activity", "setting": "Mus musculus [21]", "value": "Active"}, {"measurement": "Activity", "setting": "Mus musculus [22]", "value": "Active"}, {"measurement": "solubility kinetic at 2 h", "setting": "[23]", "value": 92, "unit": "µM"}]}]}
